Measured values: patent US8647644B1, “Methods of using capped mesoporous silicates” (Iowa State University Research Foundation, Inc., priority 2006, dated 2014)
Where a name gives a salt, the structure may show the parent alone.

What was measured:
[1] = DTT-induced drug/neurotransmitter release study (HPLC); assay type: physicochemical; conditions: for release within 24 hours as share of total release seen in 3 days: from CdS-capped MSN after 18.5 mM DTT; for amount released after 3 days of DTT-induced uncapping / encapsulated molecule released after 3 days of DTT-induced uncapping: from CdS-capped MSN, PBS pH 7.4
Protocol: CdS-capped MSN with vancomycin or ATP (10.00 mg) material was dispersed in 1.50 mL of PBS buffer (pH 7.4), followed by repeating wash/sonication/centrifugation cycles for five times to remove physisorbed, uncapped vancomycin or ATP molecules on the exterior surface of the material. The purified MSN/drug composite was redispersed in 3.50 mL of PBS buffer (pH 7.4). Aliquots were taken every 4 hours over a time period of 12 hours from the MSN/water suspension and injected to an analytical HPLC system (Hitachi LC/3DQMS with a reverse phase C18 column (Vydac), 0.4 cm×25 cm) to monitor the leaching of the mesoporous channel encapsulated vancomycin or ATP molecules. After 12 hours, dithiothreitol (DTT, 18.50 mM) was added to the suspension to cleave the disulfide linkage between the CdS nanoparticle and the MSN. The kinetic profiles of the DTT-induced release of vancomycin and ATP were monitored by following two literature-reported HPLC separation conditions. The peaks/areas at 280 and 258 nm were monitored/integrated for the quantitative analysis of amounts of released vancomycin and ATP, respectively. See Farin et al., J. Pharm. Biomed. Anal. 1998, 18:367; and Veciana-Nogues et al., Food Chem. 1997, 59:467.

[2] = Loading of vancomycin and ATP into linker-MSN with CdS capping, HPLC of filtrate; assay type: physicochemical; conditions: for loading efficiency: CdS-capped linker-MSN; for amount of mesopore-encapsulated molecule: per 100.0 mg of linker-MSN material, from concentration decrease in filtrate
Protocol: Purified linker-MSN material from sub-part (b) below (100.00 mg) was incubated in a PBS buffer solution (0.60 mL, pH 7.4) of ATP or vancomycin (3.00 μmol in both cases) for 24 hours. Mercaptoacetic acid-functionalized CdS nanoparticles from sub-part (c) below (0.15 mmol) were dissolved in 2.00 mL of PBS buffer with vancomycin or ATP (0.01 mmol in both cases); 1-[3-(dimethylamino)propyl]-3-ethylcarbodiimide hydrochloride (EDC) (57.50 mg, 0.30 mmol) was added to the CdS/drug solution. The reaction mixture was allowed to stir for 24 hours, followed by centrifuging the suspension at 12,000 rpm for 3 minutes. The resulting precipitates (ATP- or vancomycin-loaded, CdS-capped MSNs) were isolated and dried under vacuum.
The water-soluble CdS nanocrystals (average particle diameter of 2.0 nm) with mercaptoacetic acid groups were covalently captured and formed amide bonds by reacting with the mesopore surface-bound 2-(propyldisulfanyl)ethylamine linkers of the MSN/drug composite material in aqueous solutions. The resulting reaction suspensions were centrifuged, and the CdS-capped MSN/drug composite materials along with the unreacted CdS nanoparticles were filtered. The concentrations of the free vancomycin and ATP molecules in the filtrate were then determined by HPLC. The calculated concentration decreases of solution vancomycin and ATP were attributed to the amounts of mesopore-encapsulated vancomycin (2.5 μmol) and ATP (4.7 μmol) per 100.0 mg of linker-MSN material. These numbers correspond to ca. 83.9 and 30.3 mol % loading efficiency, respectively.

type-1 astrocytes = test: Intracellular calcium imaging (Fura-2) of astrocyte cultures; conditions: no MSNs
Protocol: After incubation, tissue was rinsed with EBSS solution and incubated for 5 minutes in trypsin-inhibitor solution (1 mg/mL; Gibco-Invitrogen Co.). After being rinsed, once with EBSS solution and once with culture medium (consisting of α-minimum essential medium (α-MEM; Gibco-Invitrogen Co.) supplemented with 10% heat-inactivated fetal bovine serum (FBS; Gibco-Invitrogen Co.) and 1.00 mL of penicillin-streptomycin solution (Sigma-Aldrich Co.) per 100 mL), the tissue was mechanically dispersed in culture medium by triturating through a fire-polished glass pipet. The cell suspension was transferred to sterile 15-mL centrifuge tubes and spun at 1000 g for 10 minutes. Cell pellets were resuspended in culture medium (α-MEM supplemented with 10% heat-inactivated FBS and 1.00 mL of penicillin-streptomycin solution per 100.00 mL) and plated in culture flasks. […] Culture medium was changed every 2 to 3 days. When mixed cultures reached confluence (9-12 days), the flasks were shaken (260 rpm) for 90 minutes to remove microglia and dividing type I astroglia. After shaking the cells, medium was replaced, and the flasks were incubated for 1 hour to equilibrate with CO2 in the fresh medium. […]
The effect of experimental manipulation on the intracellular calcium concentration ([Ca^2+]i) of cultured cells was evaluated by ratiometric imaging techniques. […]

[3] = tested on: tobacco mesophyll protoplasts; test: Endocytosis experiments with tobacco mesophyll protoplasts (Example 11); assay type: cell-based, Nicotiana tabacum; conditions: 1 mM LYCH, overnight in W5
Protocol: Tobacco protoplasts were mixed with MSN in W5 media (Spangenberg et al., supra) using 10^6 cells for 10 μg of MSN. The mix was incubated overnight in 3 mL of W5 in BD Falcon 6-well flat-bottom plates. To remove non-engulfed MSN (except for FIG. 20A), the mixture were overlaid on K4 medium (Spangenberg et al., supra) and centrifuge at 100×g for 10 minutes at room temperature. The protoplasts at the interphase were collected and evaluated. Isolated live cells experiments images were taken using a 63× oil objective with a Leica TCS/NT laser scanning confocal microscope equipped with Argon 488 nm and Krypton 568 nm lasers plus a double dichroic DD488/568 filter. To detect fluorescence in the green channel, a combination of RSP580 and BP525/25 filters was used under wavelength between 500 and 550 nm. For the red channel, wavelength above 590 nm was selected using a LP590 filter. During scanning, pinhole was maintained at 1 for all images. Images were acquired using TCS software and analyzed using ImageJ (Abramoff et al., Biophotonics Int'l 2004, 11:36). Whole tissue images were taken under either bright field or GFP band pass exciter 460-490 nm with emission filter 510-550 nm using an Olympus SHZ10 stereoscope coupled to a SPOT RT color CCD camera (Diagnostic Instrument Inc.). Images were acquired with SPOT software.

protoplasts = conditions: 1-2 mg of DNA per 10^6 cells; cited from earlier work

Compound	release within 24 hours as share of total release seen in 3 days [1] [%]	amount released after 3 days of DTT-induced uncapping [1] [µmol]	encapsulated molecule released after 3 days of DTT-induced uncapping [1] [%]	loading efficiency [2]	amount of mesopore-encapsulated molecule [2] [µmol]	further results
Nc1ncnc2c1ncn2[C@@H]1O[C@H](COP(=O)([O-])OP(=O)([O-])OP(=O)(O)O)[C@@H](O)[C@H]1O.[Na+].[Na+] [ATP, adenosine triphosphate disodium salt]	85	1.3	28.2	~30.3 mol %	4.7	change of intracellular [Ca2+]i (type-1 astrocytes; 100.0 μM, ME-treated astrocytes): obvious increases in [Ca^2+]i
OCCS [ME]						change of intracellular [Ca2+]i (type-1 astrocytes; perfusion 1.0 mM for 5 minutes): no increase in [Ca^2+]i
CN[C@H](CC(C)C)C(=O)N[C@H]1C(=O)N[C@@H](CC(N)=O)C(=O)N[C@H]2C(=O)N[C@H]3C(=O)N[C@H](C(=O)N[C@H](C(=O)O)c4cc(O)cc(O)c4-c4cc3ccc4O)[C@H](O)c3ccc(c(Cl)c3)Oc3cc2cc(c3O[C@@H]2O[C@H](CO)[C@@H](O)[C@H](O)[C@H]2O[C@H]2C[C@](C)(N)[C@H](O)[C@H](C)O2)Oc2ccc(cc2Cl)[C@H]1O [vancomycin, Vancomycin hydrochloride]	85	1.6	53.8	ca. 83.9 mol %	2.5	
Lucifer Yellow CH, lithium salts						protoplasts that underwent endocytosis [3]: 26±7%
polyethylene glycol [polyethylene glycol (PEG)]						transient transformation efficiency (protoplasts): 40-90%
